Measured values taken from PubChem BioAssay AID493003 (Sanford-Burnham Center for Chemical Genomics, 2010).
Calls of active or inactive are those of the source. No rule for the calls is given here.

tested on: S. cerevisiae tim10-1 mutant growth, luminescence; test: growth inhibitors of tim10-1 mutant yeast, dose response, luminescence, S. cerevisiae, uHTS hits (AID 493003);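 also: yeast growth measured after about 22 hours at 25 °C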

Structure (SMILES) | IC50
CCOC(=O)c1sc2ncnc(NCc3ccco3)c2c1C | 30.5 µM
CC(C)CN(CC(C)C)C(=S)Nc1ccc(Cl)cc1 | 15.6 µM
Cc1ccc2cc3cc(C(=O)NCCCN4CCc5ccccc5C4)oc3nc2c1 | > 100 µM (inactive)
CCN1C(=O)C(CC(=O)Nc2ccc(OC)cc2)N(CCc2ccc(OC)cc2)C1=S (centres undefined) | 32.2 µM
CCN(CC)CCN(C(=O)c1ccc2c(c1)CCCC2)c1nc2ccc(OC)cc2s1 | 22 µM
Cc1cc(C)cc(N2C(=O)CC(Sc3nnnn3-c3ccccc3)C2=O)c1 (centres undefined) | 13.6 µM
O=C1C2C(c3ccccc3)CC=CC2[C@H](c2ccc3ccccc3c2)N1Cc1ccccc1 (some centres undefined) | 22.9 µM
Cc1c(C(=O)NC2CCCc3ccccc32)oc2ccccc12 (centres undefined) | 20.2 µM
C[C@@]12CCC=C[C@H]1[C@H](c1ccc3ccccc3c1)N(Cc1ccccc1)C2=O | 22.2 µM
CCOC(=O)c1ccc(N2C(=O)CC(N3CCC(C(=O)OCC)CC3)C2=O)cc1 (centres undefined) | 15.1 µM
COc1ccc(/C=N/n2c(=S)n(C)c3ccccc32)cc1OC | 36.1 µM
NC(=O)C1CCN(C2CC(=O)N(c3ccc(F)c(Cl)c3)C2=O)CC1 (centres undefined) | 21.3 µM
Cc1ccc(-c2csc(-c3c[nH]c4ccccc34)n2)cc1 | 25.4 µM
O=C1CN(C(=O)/C=C/c2cccc(Cl)c2)c2ccccc2N1 | 30.3 µM
CCOc1ccccc1N1CCN(C(=O)Nc2ccc(F)c(Cl)c2)CC1 | 60.6 µM
O=C(NC1CCCCC1)c1ccc(-c2ccc(Cl)cc2)o1 | 17.4 µM
COc1ccc(Sc2cnn(-c3ccccc3)c(=O)c2Cl)cc1 | 35.6 µM
CCCCCc1ccc(OCCCC[n+]2ccccc2)c(CCCCC)c1 | 24.8 µM
Oc1ccccc1-c1csc(-c2ccccc2)n1 | 26.3 µM
CCOc1ccccc1NC(=O)/C=C/C(N)=O | 14.4 µM
O=C(NC(=S)NCc1ccccc1)c1ccccc1F | 66.5 µM
N/C(=N\OC(=O)c1cccnc1)c1ccc(Cl)cc1Cl | 17.8 µM
Nc1nc(Nc2ccccc2)nc2ccccc12 | 28.1 µM

Structure (SMILES) | IC50
Cn1c(/C=C/c2ccc([N+](=O)[O-])o2)nc2ccccc2c1=O | 7.3 µM
O=[N+]([O-])c1ccccc1N/N=C/c1c[nH]c2ccccc12 | 13.8 µM
COC(=O)c1ccc(N2C(=O)CC(N(C)CCc3ccc(OC)c(OC)c3)C2=O)cc1 (centres undefined) | 18.6 µM
CCCCn1nc(NC(=O)c2cccs2)c2cc3ccccc3nc21 | 73.9 µM
Cc1ccc(C(=O)NC(=S)Nc2ccccc2C)cc1 | 44.5 µM
CC(C)C1O/C(=N/C(=O)Nc2ccc(Cl)c(Cl)c2)NC1=O (centres undefined) | 32.3 µM
CCCc1cc(-c2n[nH]c(=S)n2-c2cccc(C)c2)cs1 | 37.5 µM
CCc1cccc(NC(=O)CS(=O)Cc2nc(-c3ccc(C)cc3)oc2C)c1 (centres undefined) | 27 µM
COc1ccc(-c2nn(-c3ccccc3)cc2/C=C(\CC(=O)O)c2nc3ccccc3s2)cc1OC | 60.8 µM
Cc1ccccc1/C=C/C(=O)c1ccc([N+](=O)[O-])o1 | 3.76 µM
O=C1C=C(NC(=O)Nc2ccc(Cl)c(Cl)c2)CCC1 | 95.6 µM
Cc1c(Cl)cccc1NC(=O)c1cccc(OC(F)F)c1 | 32.8 µM
CC1=C/C(=N\OS(=O)(=O)c2ccccc2)C(C)=CC1=O | 0.3 µM
COc1ccc(C2NC(=S)NC3=C2CCc2cc(OC)ccc23)cc1 (centres undefined) | 36.7 µM
O=C(ON=C1CCN(S(=O)(=O)c2ccccc2)CC1)c1ccc(F)cc1 | 26.4 µM
COc1c(OC(C)=O)ccc(/C=C/c2ccc3ccccc3n2)c1[N+](=O)[O-] | 43.2 µM
CSc1ccc(/C=C/C(=O)c2ccc(NC(=O)C(C)C)cc2)cc1 | 20.4 µM
O=C(NC(=S)Nc1ccccc1N1CCCC1)c1ccc([N+](=O)[O-])cc1 | 14 µM
N#Cc1c(N)nc(SCC(=O)C23CC4CC(CC(C4)C2)C3)c(C#N)c1-c1ccc(Cl)cc1 | 41.6 µM
CCCCC(CC)C(=O)Nc1ncc([N+](=O)[O-])s1 (centres undefined) | 19.3 µM
Nc1cccc(Nc2nc(OC(C(F)(F)F)C(F)(F)F)nc(OC(C(F)(F)F)C(F)(F)F)n2)c1 | 39.6 µM
COc1ccc(N2C(=O)CC(Sc3nnc(-c4ccccc4)o3)C2=O)cc1 (centres undefined) | 47.2 µM
CN(C)S(=O)(=O)c1cccc(NC(=O)COc2cccc3ccccc23)c1 | > 100 µM (inactive)

Structure (SMILES) | IC50
Cn1ncc2c(Nc3cccc(Cl)c3)nc(Nc3cccc(Cl)c3)nc21 | 24.4 µM
Cc1[nH]nc2c1-c1nc3ccccc3nc1C(C)(C)C2 | 23.8 µM
NC(=NCCCCCCN=C(N)/N=C(\N)Nc1ccc(Cl)cc1)/N=C(\N)Nc1ccc(Cl)cc1 | 12.1 µM
CCSc1ccc2c(c1)N(CCCN1CCN(C)CC1)c1ccccc1S2 | 24.9 µM
COC(=O)C(C(C)=O)C1=C/C(=N\S(=O)(=O)c2ccc(C)cc2)c2ccccc2C1=O (centres undefined) | 8.03 µM
CCNc1ccc(Br)cc(C(=O)/C=C/c2c(Cl)cccc2Cl)c1=O | 22.1 µM
CCOC(=O)c1ccc(N=c2ssnc2Cl)cc1 | 10.4 µM
Cc1nc2ccc(Nc3nc4cc(S(=O)(=O)N5CCOCC5)ccc4o3)cc2s1 | 19.4 µM
CCOC(=O)c1cnc2ccc(OC)cc2c1Nc1ccc2c(c1)OCCO2 | 79.3 µM
Fc1ccccc1CNc1cc(Cl)cc(Cl)c1 | 26 µM
O=S(=O)(/N=C(/Sc1ccccc1)c1ccccc1)c1ccccc1 | 25.7 µM
COc1ccccc1N1CCN(C(=O)c2cc3sccc3n2C)CC1 | 34.6 µM
CC(=O)OC[C@]12CCC(C)=C[C@H]1O[C@@H]1[C@H](O)[C@@H](OC(C)=O)[C@@]2(C)[C@]12CO2 | 30.8 µM
Fc1ccccc1CNc1ccc(Cl)c(Cl)c1 | 26.9 µM
COc1ccc(-n2cc(-c3ccccc3)c3c(=S)nc[nH]c32)cc1 | 13 µM
N/C(=N\OC(=O)CCCc1ccccc1)c1ccc([N+](=O)[O-])cc1 | 28.5 µM
Cc1nonc1C(=O)N/N=C/c1ccc(O)cc1 | 30.3 µM
CC1=CC(C)(C)N2C(=O)C(=O)c3cc(OC(=O)c4ccco4)cc1c32 | 33.4 µM
C=CCc1c(C)nc(-c2ccccc2)nc1N/N=C/c1ccccc1 | 26.2 µM
Cc1oc2cc(Br)c(O)c(Br)c2c1C(=O)c1ccccc1 | 25.9 µM
COc1cc(/C=N/O)ccc1Oc1ccc([N+](=O)[O-])cc1[N+](=O)[O-] | 24.4 µM
CCOC(=O)c1c(N)sc2c(OC)c(Br)ccc12 | 30.5 µM
Cc1cccc(Oc2cc(NC(=O)c3ccccc3)cc([N+](=O)[O-])c2)c1 | 20.4 µM

Structure (SMILES) | IC50
N/C(=N\S(=O)(=O)c1cc(C(F)(F)F)cc(C(F)(F)F)c1)c1ccc(Cl)cc1 | 49.7 µM
Nc1nc(-c2ccc(Br)s2)c(Br)s1 | 23.5 µM
O=C(Cc1ccccc1)N/N=C/c1ccc2cccc(O)c2n1 | > 100 µM (inactive)
CCOC(=O)c1ccc(N2C(=O)CC(N3CCC(Nc4ccc(F)cc4)CC3)C2=O)cc1 (centres undefined) | 55 µM
COc1ccccc1-c1cc2ccccc2[nH]1 | 46.9 µM
Cc1csc(NC(=O)c2nc(-c3ccccc3)n(-c3ccccc3)n2)n1 | 31.7 µM
CCn1nc(C)c(C(=O)Nc2cc(Oc3ccc(Cl)cc3)cc([N+](=O)[O-])c2)c1C | 43.1 µM
Cc1nn(-c2ccc(F)cc2)c(C)c1NS(=O)(=O)c1ccc(Cl)cc1 | 19.9 µM
N#C/C(=C\c1ccccc1)C(=O)Nc1cc(S(=O)(=O)N2CCOCC2)ccc1N1CCCC1 | 31.3 µM
COc1ccc(-c2cc(C3CCN(C(=O)OC(C)(C)C)CC3)[nH]n2)cc1 | 51.2 µM
Cc1sc2ncnc(N3CCN(CCOc4ccc(Cl)cc4)CC3)c2c1C | 38.2 µM
CCOC(=O)c1c(CSc2ccc(C)cc2)n(C)c2cc(Br)c(O)c(CN(C)C)c12 | 15.9 µM
Cc1cc(Nc2ccccc2Cl)nc(-c2ccccc2O)n1 | 33.2 µM
O=C1CS(=O)(=O)N(Cc2cccc(F)c2)c2ccc(Br)cc21 | 5.54 µM
CC1=C/C(=N\OS(=O)(=O)c2ccccc2)C=CC1=O | 0.46 µM
CC1(CC(=O)N/N=C/c2ccc(OCc3ccc(Cl)cc3Cl)cc2)OCCCO1 | 5.77 µM
Nc1nc(-c2ccc(Br)cc2)cs1 | 16.9 µM
CN1CCN(c2ccccc2NC(=O)c2ccc(-c3cccc(Cl)c3)o2)CC1 | 21.4 µM
Cc1cc(C)cc(NC(=O)c2cc(S(=O)(=O)NCc3ccco3)ccc2F)c1 | 32.3 µM
Cn1ncc2c(Nc3ccc(Br)cc3)nc(Nc3ccc(Br)cc3)nc21 | 18.7 µM
Oc1ccc(-c2nccc(-c3ccc(Cl)cc3Cl)n2)cc1 | 37.1 µM
O=c1c2[nH]c3ccc(F)cc3c2nc2n1CCS2 | 27.8 µM
CC(C)(C)c1ccc(-c2n[nH]c(=S)n2Cc2ccccc2)cc1 | 33.1 µM

Structure (SMILES) | IC50
Cc1cccc(C2=NNC(=O)C(c3ccc(Cl)cc3)C2)c1 (centres undefined) | 34 µM
CC(Oc1ccc(Cl)cc1Cl)C(=O)NC1=NN(c2ccccc2)C(=O)C1 (centres undefined) | 15.2 µM
Cc1ccc(F)c([C@H]2C3C=CCC(c4ccccc4)C3C(=O)N2Cc2ccccc2)c1 (some centres undefined) | 15.2 µM
N/C(=N\OC(=O)CC(c1ccccc1)c1ccccc1)c1cccnc1 | 41.8 µM
CCCCCCCCCCOC(=O)Cn1c(COc2ccccc2OC)[n+](C)c2ccccc21 | 10.9 µM
CC(C)c1ccc(S(=O)(=O)Nc2ccc(SC(F)F)cc2)cc1 | 45.9 µM
CC1CCN(C(=O)CCc2ccc(Oc3cc([N+](=O)[O-])cc([N+](=O)[O-])c3)cc2)CC1 | 50.1 µM
CN(C)CCCN(C(=O)c1cc2cc([N+](=O)[O-])ccc2s1)c1nc2cc3c(cc2s1)OCCO3 | 13.7 µM
Cc1ccccc1OCC(=O)Nc1ccc(S(=O)(=O)N2CCCC2)cc1 | 15.6 µM
O=c1oc2ccccc2c(O)c1/C=C1\C=Nc2ccccc21 | 6.24 µM
Cc1nn(-c2ccc(Cl)cc2)c2[nH]c(CCl)cc(=O)c12 | 33.5 µM
COc1ccc2sc(N(CCCN(C)C)C(=O)c3ccc(S(=O)(=O)N4CCCc5ccccc54)cc3)nc2c1 | 16.4 µM
O=C(NC(=S)NNC(=O)c1ccccc1[N+](=O)[O-])c1ccc(Br)cc1 | 10.1 µM
Cc1ccc(/C(N)=N/OC(=O)C(C)c2ccc([N+](=O)[O-])cc2)cc1 (centres undefined) | 9.99 µM
COc1ccc(C(=O)O/N=C(\N)c2ccc(Br)cc2)cc1 | 11.9 µM
N/C(=N\OC(=O)c1ccc(Cl)cc1)c1ccc(Cl)cc1 | 3.34 µM
COc1cccc(-c2nn3c(-c4ccccn4)nnc3s2)c1 | 33.4 µM
COc1ccc2cc3cc(C(=O)Nc4ccccc4N4CCN(C)CC4)oc3nc2c1 | 17.5 µM
S=C1NC(c2cccs2)=CC(c2ccc(Br)cc2)N1 (centres undefined) | 18.1 µM
O=C(Nc1ccc(C(=O)N2CCN(c3ccc(F)cc3)CC2)cc1)C1=CSCCO1 | 44.3 µM
Cc1ccc(NC2=C/C(=N\S(=O)(=O)c3cccs3)c3ccccc3C2=O)c(C)c1 | 3.94 µM
Cn1c(CSc2nnc(SCc3ccccc3)s2)nc2ccccc21 | 19.6 µM
